In PubChem BioAssay (NCI):
“And” between values parts separate entries of the source, which are not always exact repeats. Equal values may be shown once.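 Test compounds were applied to cells in 96-well plates for 48 hours at 5 doses. Abbreviation: GI50, concentration required for 50% inhibition of growth. TGI is the concentration that stops growth completely.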

Key:
Test in all cases: NCI anticancer screen, dose series, 48 h
BT-549 breast = tested on: BT-549 breast
SK-MEL-2 melanoma = tested on: SK-MEL-2 melanoma
DU-145 prostate = tested on: DU-145 prostate
OVCAR-5 ovarian = tested on: OVCAR-5 ovarian
SK-MEL-28 melanoma = tested on: SK-MEL-28 melanoma
TK-10 renal = tested on: TK-10 renal
MCF7 breast = tested on: MCF7 breast
UACC-257 melanoma = tested on: UACC-257 melanoma
OVCAR-3 ovarian = tested on: OVCAR-3 ovarian
MOLT-4 leukemia = tested on: MOLT-4 leukemia

Row | Structure (SMILES) | GI50 (BT-549 breast) | TGI (BT-549 breast) | GI50 (SK-MEL-2 melanoma) | TGI (SK-MEL-2 melanoma) | GI50 (DU-145 prostate) | TGI (DU-145 prostate) | GI50 (OVCAR-5 ovarian) | TGI (OVCAR-5 ovarian) | GI50 (SK-MEL-28 melanoma) | TGI (SK-MEL-28 melanoma) | GI50 (TK-10 renal) | TGI (TK-10 renal) | GI50 (MCF7 breast) | TGI (MCF7 breast) | GI50 (UACC-257 melanoma) | TGI (UACC-257 melanoma) | GI50 (OVCAR-3 ovarian) | TGI (OVCAR-3 ovarian) | GI50 (MOLT-4 leukemia) | TGI (MOLT-4 leukemia)
1 | O=C(Nc1ccc(Cl)cc1F)c1ccccc1O | 2.88 µM | 9.88 µM | 2.3 µM | 6.59 µM | 4.13 µM | > 100 µM | 3.04 µM | > 100 µM | 3.9 µM | 21.6 µM | 4.54 µM | 47.1 µM | 1.5 µM | 12.6 µM | 2.9 µM | 8.86 µM | 2.98 µM | > 100 µM | 3.49 µM | 13.5 µM
2 | O=c1c2sc(=S)n(-c3ccc(F)cc3)c2ncn1Cc1ccc(F)cc1F | > 100 µM | > 100 µM | > 100 µM | > 100 µM | > 100 µM | > 100 µM | > 100 µM | > 100 µM | > 100 µM | > 100 µM | 96 µM | > 100 µM | 67.7 µM | > 100 µM | > 100 µM | > 100 µM | > 100 µM | > 100 µM | > 100 µM | > 100 µM
3 | Cc1ccc(C)c(C2=C(c3cn(C)c4ccccc34)C(=O)NC2=O)c1 | > 25 µM | > 25 µM | > 25 µM | > 25 µM | > 20.2 µM | > 25 µM | > 25 µM | > 25 µM | > 25 µM | > 25 µM | > 25 µM | > 25 µM | 6.81 µM | > 25 µM | > 25 µM | > 25 µM | 15.1 µM | > 25 µM | 12.4 µM | > 25 µM
4 | CCn1c(-c2nonc2N)nc2c(C#CC(C)(C)O)nc(OC[C@H](N)c3ccccc3)cc21 | 3.39 µM | 6.74 µM | 4.12 µM | 8.24 µM | 3.26 µM | 6.47 µM | 5.69 µM | 9.99 µM | 4.75 µM | 8.56 µM | 2.69 µM | 6.37 µM | 2.92 µM | 6.16 µM | 5.18 µM | 9.43 µM | 3.56 µM | 6.84 µM | 3.09 µM | 14.7 µM
5 | O=C(O)C1C2C=CC(O2)C1C(=O)NCc1ccccn1 (stereo not given) |  | > 100 µM |  | > 100 µM |  | > 100 µM |  | > 100 µM |  | > 100 µM |  | > 100 µM |  | > 100 µM |  | > 100 µM |  | > 100 µM |  | > 100 µM
6 | O=C(OC(CNc1cc(=O)n(Cc2ccccc2)c(=O)n1Cc1ccccc1)CN1CCCC1)c1ccccc1 (stereo not given) | 0.781 µM | > 100 µM | > 100 µM | > 100 µM | 1.9 µM | > 100 µM | > 100 µM | > 100 µM | > 100 µM | > 100 µM | > 100 µM | > 100 µM | > 100 µM | > 100 µM | > 100 µM | > 100 µM | > 100 µM | > 100 µM | > 100 µM | > 100 µM
7 | COc1ccc(CN2C(=O)/C(=C\C(=O)c3ccc(OCCN4CCCCC4)cc3)c3ccccc32)cc1 | 5.25 µM | 16.5 µM | 13.8 µM | 27.9 µM | 3.35 µM | 11.5 µM | 1.88 µM | 5.94 µM | 1.98 µM | 4.02 µM | 1.69 µM | 3.18 µM | 1.85 µM | 4.6 µM | 16.8 µM | 30.8 µM | 1.93 µM | 3.94 µM | 2.26 µM | 6.26 µM
8 | N#CC(=C1C=CC(=NO)C=C1)c1ccccc1 | 2.42 µM | 11.6 µM | 2.14 µM | 6.77 µM | 1.58 µM | 4.05 µM | 2.53 µM | 5.03 µM | 8.71 µM | 27.5 µM | 4.47 µM | 13.3 µM | 0.319 µM | 11.6 µM | 2.12 µM | 17.8 µM | 0.458 µM | 4.38 µM | 3.04 µM | 18.4 µM
9 | O=C(Nc1nc2ccc(C(F)(F)F)cc2s1)c1cc(Cl)ccc1O | 0.89 µM | 7.77 µM | 0.798 µM | 6.09 µM | 1.59 µM | > 100 µM | 3.67 µM | > 100 µM | 0.425 µM | 18 µM | 0.76 µM | 34 µM | 2.18 µM | > 100 µM | 0.646 µM | 5.53 µM | 0.422 µM | 56 µM | 0.684 µM | 13.4 µM
10 | CCN(CC)CCCC(CNc1ccnc2cc(Cl)ccc12)c1ccc(Cl)cc1 (stereo not given) | 1.79 µM and 1.75 µM | 3.79 µM and 3.38 µM | 2.1 µM and 1.59 µM | 4.07 µM and 3.09 µM | 3.84 µM and 4.19 µM | 15.5 µM and 19 µM | 2.53 µM and 2.16 µM | 8.25 µM and 6.25 µM | 1.66 µM and 0.537 µM | 3.3 µM and 1.09 µM | 1.67 µM and 0.83 µM | 3.24 µM and 2.08 µM | 1.31 µM and 1.24 µM | 3.15 µM and 2.71 µM | 1.97 µM and 0.583 µM | 3.74 µM and 1.61 µM | 2.46 µM and 2.38 µM | 7.73 µM and 9.83 µM | 1.56 µM and 1.24 µM | 4.91 µM and 4.22 µM
11 | CC(CCC=O)CCOCc1ccccc1 (stereo not given) |  | > 100 µM |  | > 100 µM |  | > 100 µM |  | > 100 µM |  | > 100 µM |  | > 100 µM |  | 22.7 µM |  | > 100 µM |  | > 100 µM |  | > 61.6 µM
